Reference: patent US20080280860A1, “Use of Vitamin D Compounds to Treat Endometriosis” (BioXell S.p.A., priority 2005, published 2008)

Key:
endometriotic cells = assay: Cell adhesion of endometrial stromal cells from treated animals; type: in vivo; conditions: animals treated 100 ug/kg orally once a day for two days; 5 subjects per group; FIG. 9
Method: Paired animals were treated wth Compound A (100 ug/kg) orally once a day, for two days. The animals were then sacrificed and uterus horns were removed. Myometrium was removed by scraping with a scalpel blade and remaining endometrial tissue was reduced to small fragments with scissors.
Tissue was minced into small pieces (1 to 2 mm^3) and incubated at 37° C. for 1 h with 0.1% type A collagenase. At the end of the incubation, single stromal cells were separated from large dumps of epithelium by a 10 min. period of differential sedimentation at unity gravity. The top 8 ml of medium, containing predominantly stromal cells, were then slowly removed and the cells were collected by centrifugation. […]
Polystyrene 96-well plates (Costar) were coated with 50 ul/well of 8 mg/ml extracellular matrix (ECM) (Sigma, USA), and left uncovered in a laminar flow hood overnight to allow evaporation. […] The sample fluorescence in each well was measured using a fluorescence microplate reader with filters appropriate for 480 nm excitation and 520 nm emission maxima. Results were expressed as the percentage of total cells assuming that the adhesion of cells in the control was 100%. The percentage of adhesion was determined using the formula: (Abs after being rinsed with PBS/Abs no rinse)×100%. […]

[1] = test system: human stromal endometrial cells; assay: Cell chemotaxis assay (modified Boyden chamber); type: cell-based; conditions: FIG. 10
Method: Human stromal cell preparation: tissue was gently minced into small pieces (1 to 2 mm^3) and incubated at 37° C. for 1 h with 0.1% type A collagenase. At the end of the incubation, single stromal cells were separated from large dumps of epithelium by a 10 min. period of differential sedimentation at unity gravity. The top 8 ml of medium, containing predominantly stromal cells, were then slowly removed and the cells were collected by centrifugation. The stromal-enriched fraction was washed twice in culture medium and allowed to adhere selectively to tissue culture dishes for 15 min. Thereafter, non-attached epithelial cells still present were removed and a purified stromal preparation was obtained on the surface of the culture dishes.
Endometrial stromal cells migration was evaluated by means of chemotaxis experiments in a 48-well modified Boyden chamber. With the migration assay, we assessed the ability of the cells to migrate toward a chemo-attractant on a two-dimensional substrate (in our case, collagen type IV). […] The cells that had migrated to the lower side of the filter were stained with Diff-Quick stain (VWR Scientific Products, Bridgeport, N.J.), and 5-8 unit fields per filter were counted at 160× magnification using a Zeiss microscope. […]

peritoneal macrophages = assay: ELISA quantification of cytokine produced by peritoneal macrophages; type: in vivo, mice
Method: Peritoneal cells were recovered two weeks after unterus transfer in cold PBS, 2 mM EDTA, by peritoneal lavage of treated (Compound A at 100 ug/kg) and untreated (vehicle only) animals prepared according to the procedure described previously in Examples 1 to 3 (pool of 5 mice per group). Peritoneal macrophages were counted directly after collection using Turk reagent, washed, and placed into culture with RPMI/glutamax 5% FC I, pen/strep, Na pyruvate. After 2 hr at 37° C. the non adherent cells were removed and the macrophages were cultured for a further 48 hr. The supernatant was harvested and cytokines (TNF-alpha, IL1-alpha, IL1-beta, IL6, MIP-2 and VEGF) were quantified using a specific ELISA (R&D System DuoSet). All ELISA determinations were performed in duplicate on the undiluted sample. The total cells number plated was assessed by CyQuant test and values of protein production were normalized to cell number.

Maximum tolerated dose = type: in vivo, Balb/c mice

C=C1/C(=C\C=C2/CCC[C@]3(C)C([C@@H](C)C/C=C/C(O)(CC)CC)=CC[C@@H]23)C[C@@H](O)C[C@@H]1F [Compound A, 1-alpha-fluoro-25-hydroxy-16,23E-diene-26,27-bishomo-20-epi-cholecalciferol]
adhesion of endometriotic cells (endometriotic cells): dramatically reduce the adhesion
reduction in migration with estrogen stimulation ([1]; 1 uM pretreatment 30 min, then β-Estradiol 24 h): approximately 50%
basal condition of migration ([1]; 1 uM, without estrogen stimulation): No effect
inflammatory cytokine and VEGF production (TNF-alpha, IL1-alpha, IL1-beta, IL6, MIP-2, VEGF) (peritoneal macrophages; 100 ug/kg versus vehicle, macrophages recovered two weeks after uterus transfer, cultured 48 hr, FIG. 11): dramatically reduced
cytokine production after re-activation in vitro with LPS (peritoneal macrophages; macrophages of treated animals, data not shown): still capable of producing the same cytokines
MTD (Maximum tolerated dose; Balb/c, mouse, in vivo, mice, ip, above it the compound becomes hypercalcemic): 0.1 mg/kg
associated toxicity compared with the other compounds tested (Maximum tolerated dose; Example 2): lower associated toxicity
